Where a SMILES comes first, the peptide text is derived from it. [ ]: non-standard residue; d: D form. The star is where a group is joined. X1 = CC(C)CCC[C@@H](C)[C@H]1CC[C@H]2[C@@H]3CC[C@H]4C[C@@H](O*)CC[C@]4(C)[C@H]3CC[C@]12C; NMeL = CN[C@@H](CC(C)C)C(=O)O; PEG4 = NCCOCCOCCOCCOCCC(=O)O; PEG3 = NCCOCCOCCOCCC(=O)O; Ava = NCCCCC(=O)O
Assays:
NK1R [1] = target: T1, NK1R (Rattus norvegicus, UniProt P14600); assay: Calcium mobilization assay, agonist mode, HEK293 cells expressing NK1R; type: cell-based; set-up: Full length and truncated 6312 rat HA-NK1R have been described; expressed in transfected cells; host or cells: HEK293
Source text: GR73632 was conjugated to cholestanol (Compound 3) or ethyl ester (GR73632-ethyl ester) via a flexible PEG linker. The effect of these compounds in HEK293 cells expressing NK1R was then studied.

NK1R [2] = target: T1, NK1R; assay: BRET between NK1R-RLuc8 and βarr1/2-YFP in HEK293 cells; type: cell-based; set-up: Full length and truncated 6312 rat HA-NK1R have been described; expressed in transfected cells; host or cells: HEK293 (transient); conditions: agonist alone
Procedure: Bioluminescence Resonance Energy Transfer (BRET) was employed to quantitatively assess the proximity of the NK1R to key regulators of GPCR trafficking (βarrs), and resident proteins of plasma (KRas) and early endosomal (Rab5a) membranes in HEK293 cells (FIG. 1A).
HEK293 cells were transfected with the following cDNAs: 1 μg NK1R-RLuc8 or 1 μg CLR-RLuc8+1 μg Myc-RAMP1+4 μg KRas-Venus, 4 μg Rab5a-Venus, 4 μg βarr1-YFP, or 4 μg βarr2-YFP; or 1 μg NK1R+0.5 μg Gαq-RLuc8+1 μg Gβ1+4 μg Gγ2-Venus; or 1 μg NK1R+0.5 μg Gαq-RLuc8+1 μg Gβ1+1 μg Gγ2+4 μg Rab5a-Venus. After 48 h, cells were equilibrated in Hank's balanced salt solution (HBSS) at 37° C., and incubated with the RLuc substrate coelenterazine h (5 μM, 15 min).

NK1R [3] = target: T1, NK1R; assay: FRET biosensors of compartmentalized signaling (ERK, PKC, cAMP) in NK1R-expressing HEK293 cells; type: cell-based; set-up: Full length and truncated 6312 rat HA-NK1R have been described; expressed in transfected cells; host or cells: HEK293 (transient); conditions: agonist alone, imaged over 20 min
Procedure: To study the link between NK1R trafficking and signaling, the NK1R and Förster Resonance Energy Transfer (FRET) biosensors targeted to detect activated ERK in the cytosol (CytoEKAR) or nucleus (NucEKAR, FIG. 2A), activated PKC at the plasma membrane (pmCKAR) or in the cytosol (CytoCKAR, FIG. 2C), and cAMP at the plasma membrane (pmEpac2) or in the cytosol (CytoEpac2, FIG. 2E) were expressed in HEK293 cells.
HEK293 cells were transfected with 55 ng/well rat NK1R with N-terminal HA. 11 epitope tag (HA-NK1R) or CLR plus RAMP1 and 40 ng/well FRET biosensors. FRET was assessed 48 h after transfection, following serum restriction (0.5% FBS overnight). For experiments using clathrin or dynamin siRNA, cells were transfected with 55 ng/well rat HA-NK1R, 40 ng/well FRET biosensor and 25 nM/well scrambled, clathrin or dynamin ON-TARGETplus SMARTpool siRNA (GE Dharmacon). FRET was assessed 72 h after transfection, following serum restriction (0.5% FBS overnight). Cells were equilibrated in HBSS at 37° C. and FRET was analyzed using a GE Healthcare INCell 2000 Analyzer. For GFP/RFP emission ratio analysis, cells were sequentially excited using a FITC filter (490/20) with emission measured using dsRed (605/52) and FITC (525/36) filters, and a polychroic optimized for the FITC/dsRed filter pair (Quad4). For CFP/YFP emission ratio analysis, cells were sequentially excited using a CFP filter (430/24) with emission measured using YFP (535/30) and CFP (470/24) filters, and a polychroic optimized for the CFP/YFP filter pair (Quad3). Cells were imaged every 1 min, allowing image capture of 14 wells per minute. Baseline emission ratio images were captured for 4 min. […] Cells were then stimulated with the positive control (200 nM phorbol 12,13-dibutyrate for ERK; 200 nM phorbol 12,13-dibutyrate with phosphatase inhibitor cocktail for PKC; 10 μM forskolin, 100 μM 3-isobutyl-1-methylxanthine, 100 nM PGE1 for cAMP) for 10 min to generate a maximal increase, and positive emission ratio images were captured for 4 min. Data were analyzed as described and expressed as emission ratios relative to baseline for each cell (F/F0). Cells with >10% change in F/F0 after stimulation with positive controls were selected for analysis.

[4] = target: T2, endothelin converting enzyme 1 (Homo sapiens, UniProt P42892); conditions: cited from earlier work
T2 sequence (P42892 1-770): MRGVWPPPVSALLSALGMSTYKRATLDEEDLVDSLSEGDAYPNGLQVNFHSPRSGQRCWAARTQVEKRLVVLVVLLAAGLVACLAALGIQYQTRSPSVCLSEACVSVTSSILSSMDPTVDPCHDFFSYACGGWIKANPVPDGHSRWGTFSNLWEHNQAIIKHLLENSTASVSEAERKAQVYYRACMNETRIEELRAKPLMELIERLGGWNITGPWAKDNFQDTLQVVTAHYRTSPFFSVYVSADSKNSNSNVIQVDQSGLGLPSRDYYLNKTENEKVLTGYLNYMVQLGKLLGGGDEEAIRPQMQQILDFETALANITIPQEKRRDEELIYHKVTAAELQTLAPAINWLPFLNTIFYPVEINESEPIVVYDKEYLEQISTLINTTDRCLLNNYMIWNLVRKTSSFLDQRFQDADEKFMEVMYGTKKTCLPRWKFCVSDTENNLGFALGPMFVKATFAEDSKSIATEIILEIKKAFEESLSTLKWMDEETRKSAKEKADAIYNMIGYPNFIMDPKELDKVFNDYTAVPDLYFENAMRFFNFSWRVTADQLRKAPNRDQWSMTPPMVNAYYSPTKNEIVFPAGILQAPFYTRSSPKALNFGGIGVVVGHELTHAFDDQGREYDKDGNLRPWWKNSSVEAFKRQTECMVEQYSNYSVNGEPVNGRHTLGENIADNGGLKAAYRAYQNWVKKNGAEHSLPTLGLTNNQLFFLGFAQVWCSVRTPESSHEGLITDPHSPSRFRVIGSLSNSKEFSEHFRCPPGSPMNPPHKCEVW

T1 sequence (P14600 whole entry, the tested form may be a part): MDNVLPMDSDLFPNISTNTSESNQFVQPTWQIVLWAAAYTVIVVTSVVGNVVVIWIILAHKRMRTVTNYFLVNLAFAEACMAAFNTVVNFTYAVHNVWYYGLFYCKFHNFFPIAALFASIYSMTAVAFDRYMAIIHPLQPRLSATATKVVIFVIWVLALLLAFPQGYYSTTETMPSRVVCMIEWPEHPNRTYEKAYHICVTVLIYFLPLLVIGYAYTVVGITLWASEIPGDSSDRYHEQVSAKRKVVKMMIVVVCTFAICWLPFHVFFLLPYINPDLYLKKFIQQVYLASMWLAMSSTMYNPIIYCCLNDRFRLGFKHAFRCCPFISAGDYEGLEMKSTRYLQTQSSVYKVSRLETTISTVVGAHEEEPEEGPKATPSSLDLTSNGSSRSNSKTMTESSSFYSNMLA

Row | EC50 (NK1R [1]; HEK293 cells expressing NK1R, given as logEC50 (negative)) | SMILES | decrease in potency compared to the free agonist (NK1R [1]; calcium mobilization) | recruitment of βarrs (BRET NK1R-RLuc8 / βarr1-YFP, βarr2-YFP) (NK1R [2]) | cytosolic ERK activation (FRET CytoEKAR) (NK1R [3]) | nuclear ERK activation (FRET NucEKAR) (NK1R [3]) | susceptibility to cleavage by endothelin converting enzyme 1 [4]
1 |  | CSCC[C@H](NC(=O)[C@H](CC(C)C)N(C)C(=O)[C@@H]1CCCN1C(=O)[C@H](Cc1ccccc1)NC(=O)[C@H](Cc1ccccc1)NC(=O)CCCCNC(=O)CCOCCOCCOCCOCCNC(=O)CCOCCOCCOCCNC(=O)CCOCCOCCOCCOCCNC(=O)[C@H](CC(=O)O[C@H]1CC[C@@]2(C)[C@@H](CC[C@@H]3[C@@H]2CC[C@]2(C)[C@@H]([C@H](C)CCCC(C)C)CC[C@@H]32)C1)NC(C)=O)C(N)=O [Compound 3] (Ac-D(X1)[PEG4][PEG3][PEG4][Ava]FFP[NMeL]M-NH2) | ~100 fold | does not induce recruitment of βarrs | no cytosolic ERK | stimulates sustained nuclear ERK phosphorylation | 
2 | 0.933 nM | CSCC[C@H](NC(=O)[C@H](CC(C)C)N(C)C(=O)[C@@H]1CCCN1C(=O)[C@H](Cc1ccccc1)NC(=O)[C@H](Cc1ccccc1)NC(=O)CCCCN)C(N)=O [GR73632, Ava-Phe-Phe-Pro-N-MeLeu-Met-NH2] (H-[Ava]FFP[NMeL]M-NH2) |  |  | stimulated sustained cytosolic and nuclear ERK phosphorylation | stimulated sustained cytosolic and nuclear ERK phosphorylation | not susceptible to cleavage
